# Laboratory results: the NIST ThermoML archive (doi:10.1021/je400885z)
# Several values for one entry are separate records, joined by “and”; a condition that tells them apart may be missing. Equal entries are not always repeated. Numbers after ± are expanded uncertainties.
# Conditions: Liquid
SMILES,vapor or sublimation pressure (373.15 K),vapor or sublimation pressure (423.15 K),further results
O=Cc1ccco1 [2-furaldehyde],14.62 ± 1 kPa and 14.65 ± 1 kPa,77.51 ± 1.4 kPa and 76.13 ± 1.4 kPa,
CCCCOC(C)=O [butyl ethanoate],44.71 ± 1.2 kPa and 42.55 ± 1.1 kPa,195.63 ± 2.5 kPa and 188.81 ± 2.4 kPa and 191.33 ± 2.5 kPa,vapor or sublimation pressure (473.15 K): 583.23 ± 7.3 kPa
O=C=O [carbon dioxide],,,vapor or sublimation pressure (248.15 K): 1672.6 ± 21 kPa; vapor or sublimation pressure (273.15 K): 3485.1 ± 43 kPa
COCC(C)O (stereo unspecified) [1-methoxy-2-propanol],50.45 ± 1.2 kPa and 48.26 ± 1.2 kPa and 48.55 ± 1.2 kPa,232.13 ± 3 kPa [middle of 4 runs],vapor or sublimation pressure (473.15 K): 739.81 ± 9.4 kPa
CCCCO [butan-1-ol],,,vapor or sublimation pressure (333.15 K): 8.39 ± 1 kPa; vapor or sublimation pressure (393.15 K): 110.26 ± 1.6 kPa
S=C=S [carbon disulfide],,,vapor or sublimation pressure (248.15 K): 4.5 ± 1 kPa; vapor or sublimation pressure (273.15 K): 17.3 ± 1 kPa
NCCO [2-aminoethan-1-ol],6.16 ± 1 kPa and 6.17 ± 1 kPa and 6.64 ± 1 kPa,50.62 ± 1.2 kPa and 52.71 ± 1.2 kPa and 51.97 ± 1.2 kPa,
C=CCO [2-propenol],113.1 ± 1.7 kPa and 109.94 ± 1.7 kPa and 109.95 ± 1.7 kPa,520.67 ± 6.5 kPa and 518.64 ± 6.5 kPa and 518.11 ± 6.5 kPa,
CCCCC [pentane],,,vapor or sublimation pressure (333.15 K): 215.21 ± 2.8 kPa; vapor or sublimation pressure (393.15 K): 917.75 ± 11 kPa
CCOC(C)=O [ethyl acetate],202.9 ± 2.6 kPa,687.53 ± 8.6 kPa,
CC(C)(C)O [2-methylpropan-2-ol],192.46 ± 2.5 kPa and 191.18 ± 2.5 kPa,818.16 ± 10 kPa and 816.37 ± 10 kPa,
O=C=S [carbonyl sulfide],,,vapor or sublimation pressure (248.15 K): 282.15 ± 3.6 kPa and 287.13 ± 3.7 kPa; vapor or sublimation pressure (273.15 K): 638.23 ± 8 kPa and 651.42 ± 8.2 kPa
